These results are taken from patent US10857136B2, “Compounds for use in the prevention and/or treatment of non-alcoholic fat liver disease and non-alcoholic steatohepatitis” (SJT MOLECULAR RESEARCH, SL, priority 2017, dated 2020).

Common to all, as to type: in vivo
For test [1], the system named is DIO mice (C57Bl/6J male mice). As to the kind of experiment: Liver weight, 36 days assay in DIO mice. Particulars: 50 mg/kg orally twice daily, after 36 days, vs saline control and metformin 150 mg/kg. As for the experimental part: To assess the performance of the compounds disclosed decreasing liver overweight, DIO mice (C57Bl/6J male mice) were treated with compounds 4a and 5a during 36 days, versus a control of DIO mice treated with vehicle (0.9% NaCl) and DIO mice treated with Metformin as a positive control.
For the assessment, 60 C57Bl/6J male mice (16-week-old at delivery and 40 g of average weight), obtained from Charles River France, were put on high fat diet for 10 weeks. The animals were housed in ventilated and enriched housing cages (310×125×127 mm^3) throughout the experimental phase. Animals' cages litters were changed at least once a week. Mice were housed in groups of 10 mice on a normal 12 hours light cycle (at 08:00 pm lights were switched off), at 22±2° C. and 50±10% relative humidity. After reception, mice were maintained for three additional acclimation weeks. During the whole test (acclimation+treatment phase) a high fat diet (D12492; purchased from Research Diet Inc 60% fat) and tap water were provided ad libitum.
After the acclimation period, mice were fasted for 6 hours and blood glucose and plasma insulin were measured. Ten animals, those with lower blood glucose/plasma insulin, were discarded from the study. Then, the others were randomized into 5 homogenous groups (n=10 mice per group) according to their blood glucose/plasma insulin levels (HOMA-IR) and body weight. […]

Test [2] has as its system DIO-NASH mice (C57Bl/6J male mice). The test is described as follows: Liver weight, 8 weeks assay in DIO-NASH mice. Particulars: 50 mg/kg, p.o., b.i.d., vs DIO-NASH vehicle. As for the experimental part: The animals were kept and examined under the same conditions were used as in example 2.2. The liver biopsies were also carried out under the same conditions as in example 2.2.
To assess the effect of compound 4a on liver weight of mice with non-alcoholic fat liver disease, DIO-NASH mice (C57Bl/6J male mice) were treated with a hydrochloride salt of compound 4a during 8 weeks (50 mg/kg, p.o., b.i.d.), versus a pathological control of DIO-NASH mice and a non-pathological control LEAN-CHOW mice, both treated with the vehicle (0.9% NaCl). The DIO-NASH mice group were put on high fat diet (40% AMLN diet, D09100301 Research Diets, USA) and a control group (LEAN-CHOW) was put on a regular chow diet (Altromin 1324, Brogaarden, Denmark) for 35 weeks prior to the study.

Test [3] has the same test system. The test is described as follows: NAFLD activity score (NAS) of liver biopsies pre and post study in DIO-NASH mice. Particulars: 50 mg/kg, p.o., b.i.d., 8 weeks, score range 0-8. The protocol:
Non-alcoholic fat liver disease (NAFLD) activity score or NAS was evaluated by measurements of steatosis, lobular inflammation, ballooning degeneration and […] of the liver.
Total NAS score represents the sum of scores for steatosis, inflammation, and ballooning, and ranges from 0-8 as follows:
The % of steatosis degree refers to the amount of surface area of the sample involved by steatosis as evaluated on low to medium power examination.
The value given to measure inflammation corresponds to the number of inflammatory foci per field using a 200× magnification. A focus is defined as a cluster, not a row, of >3 inflammatory cells. Acidophil bodies are not included in the inflammatory assessment.
The ballooning degeneration value is measured by the amount of balloon cells, corresponding to degenerated hepatocytes with cleared cytoplasm, enlargement, swelling, rounding and reticulated cytoplasm. […]
Liver samples were fixed in formalin, paraffin embedded, and sections were stained with hematoxylin and eosin (H&E) and Sirius Red. Samples are scored for NAS and fibrosis using of the clinical criteria outlined by Kleiner et al. 2005. […]

Test [4] shares this test system. As to the kind of experiment: Triglycerides and cholesterol liver content, 8 weeks assay in DIO-NASH mice. Particulars: 50 mg/kg, p.o., b.i.d., vs DIO-NASH vehicle. An excerpt: The DIO-NASH mouse model is fed a high fat diet that results on non-alcoholic fat liver disease and are based on C57Bl/6J mice put on a 40% high fat diet prior to the assays. For the assessment of effect of the compounds of the invention in liver lipid content in non-alcoholic fat liver disease, 34 C57Bl/6J male mice (5-week-old at delivery), obtained from Janvier, France, were used. The DIO-NASH mice group were put on high fat diet (40% AMLN diet, D09100301 Research Diets, USA) and a control group (LEAN-CHOW) was put on a regular chow diet (Altromin 1324, Brogaarden, Denmark) for 35 weeks prior to the study.
To assess the effect of compound 4a on hepatic triglyceride or cholesterol content in animals with non-alcoholic fat liver disease, DIO-NASH mice (C57Bl/6J male mice) were treated with a hydrochloride salt of compound 4a during 8 weeks (50 mg/kg, p.o., b.i.d.), versus a pathological control of DIO-NASH mice and a non-pathological control LEAN-CHOW mice, both treated with the vehicle (0.9% NaCl). […]
The triglyceride content in liver was determined using the Triglyceride reagent (Cat. no. 22-045-795, Roche Diagnostics, Germany) on a Cobas™ C-501 autoanalyzer. Homogenized liver tissue was heated to 80-100° C. twice, centrifuged in a microcentrifuge and the triglyceride content was measured in the supernatant.

With `COc1ccc(-c2nc(C(=O)NCCN)cc3c2[nH]c2ccccc23)cc1` [Compound 4a, N(-ethylamine)-1-benzosubstituted-β-carboline-3-carboxamide], the “liver weight (liver overweight)” value in test [1] is listed as “lower liver weight than either mice treated with metformin or than the control animals”. In addition, the total liver weight entry in test [2] is given as “reduced liver weight”. Besides, in test [3], the “NAS score change of the liver biopsy pre and post study” value was “generally reduced the NAS score”. Moreover, in test [4], the liver cholesterol levels result is “reduced liver cholesterol levels” and the liver triglyceride levels result is reported as “reduced liver triglyceride levels”.
